Results published in patent US7015239B2, “Fungicide for plants” (Valent BioSciences, Inc., priority 2003, dated 2006).

Legend:
Botrytis cinerea [1] = experiment: Detached bean leaf bioassay, fungal control; assay type: in vivo; details: three days after inoculation, 100 minus percent necrotic area
Description: (§1) Detached Bean Leaf Bioassay
(§2) Compound solution: Compound solutions were prepared by diluting compound stock solutions (1.0% w/v compound in DMSO) to 200 ppm with 0.01% w/v Triton X-100.
Spore solution preparation: Botrytis cinerea spores were taken from 6-week-old cultures grown at 22 C on full strength potato dextrous agar (PDA) plates and harvested in 1:16 frozen orange juice concentrate:water. Botrytis cinerea spore solutions were prepared by diluting spore cultures to 5×10^4 spores/mL with 1:16 frozen orange juice concentrate:water.
(§3) Plant material: Middle trifoliate leaves of greenhouse grown Phaseolus vulgaris (Bush bean cv. Blue Lake 274) were excised and placed on a plastic grid above a tray containing moist towels.
Treatment method: One half of the adaxial surface of the leaf was treated with the compound solution (100:L) using a 3 cm Bacti Cell Spreader. A blank consisted of 0.01% w/v Triton X-100. A commercial fungicide control (200 ppm diluted with water) consisted of Scala. […]
Fungal control rating: Three days after inoculation with Botrytis, the percent necrotic area under the inoculation droplet was determined. Since the areas under the blank (0.01% w/v Triton X-100) were 100% infected, fungal control was expressed as 100 minus the percent necrotic area, and thus 0% infected is 100% fungal control (n=3 leaves/compound, 5 inoculation droplets/leaf, Table 2).

Rhizoctonia solani = experiment: Contact evaluation (microtiter plate); assay type: cell-based; details: Rhizoctinia solani
Description: (§4) Compound solution: Contact evaluations were conducted to determine the anti-fungal activity of each compound against Botrytis cinerea, Sclerotinia sclerotiorum, Pythium aphanidermatum, Rhizoctonia solani, Cercospora arachidicola, Mycosphaerella fijiensis, and Monilinia laxa. Five milligrams of each compound were dissolved in 0.5 milliliter of DMSO for a compound stock solution of 1.0% w/v. Compound stock solutions were serial diluted with DMSO to 20, 10, and 2 ppm final well concentration.
(§5) Fungi preparation: Botrytis cinerea spores were taken from 6-week-old cultures grown at 22C on full strength potato dextrous agar (PDA) plates. Sclerotinia sclerotiorum, Pythium aphanidermatum, Rhizoctonia solani, and Monilinia laxa mycelia were taken from 4- to 10-day-old shake flask cultures grown at room temperature on full strength potato dextrous broth (PDB). Cercospora arachidicola mycelia were taken from 10- to 14-day-old shake flask cultures grown at room temperature on a full strength PDB amended with peanut oil. Mycosphaerella fijiensis mycelia were taken from 10- to 14-day-old shake flask cultures grown at room temperature on V8 juice broth. Sclerotinia sclerotiorum, Pythium aphanidermatum, Rhizoctonia solani, Cercospora arachidicola, and Mycosphaerella fijiensis mycelia (0.4 g mycelia) were blended for 45 seconds in 20 mL sterile de-ionized water. Monilinia laxa mycelia (1 g mycelia) was blended for 45 seconds in 30 mL of sterile de-ionized water. Botrytis cinerea spores were diluted with quarter strength PDB to 1×10^5 spores/mL final well concentration. All mycelia were diluted in water (1:5 mycelia:water) before distributing into the wells.
(§6) Microtiter plate preparation: Compound solution (10:L), quarter strength PDB (900:L) and fungi preparation (100:L) were sequentially distributed into 48-well microtiter plates (n=3 replications/compound/rate). A blank consisted of quarter strength PDB and fungi preparation. Commercial fungicide controls (100 ppm diluted with water) consisted of Scala for Botrytis cinerea, Dithane F-45 for Mycosphaerella fijiensis, and Benlate for Sclerotinia sclerotiorum, Pythium aphanidermatum, Rhizoctonia solani, Cercospora arachidicola, and Monilinia laxa. Plates were shaken in a circular rotator at room temperature for 20 minutes, then incubated at 25 C for 24 to 72 hours, depending on the pathogen.
(§7) Fungal control ratings: Fungal growth in wells containing the compounds were compared to the positive control and fungal inhibition was rated as full, partial, or none. Final readings were the average of the three wells (Table 1).

Sclerotinia sclerotiorum = experiment: Contact evaluation (microtiter plate); assay type: cell-based; details: Sclerotinia sclerotionum
Description: as §4, §5, §6, §7

Pythium aphanidermatum = experiment: Contact evaluation (microtiter plate); assay type: cell-based
Description: as §4, §5, §6, §7

Cercospora arachidicola = experiment: Contact evaluation (microtiter plate); assay type: cell-based
Description: as §4, §5, §6, §7

Mycosphaerella fijiensis = experiment: Contact evaluation (microtiter plate); assay type: cell-based
Description: as §4, §5, §6, §7

Botrytis cinerea [2] = experiment: Contact evaluation (microtiter plate); assay type: cell-based
Description: as §4, §5, §6, §7

Monilinia laxa = experiment: Contact evaluation (microtiter plate); assay type: cell-based
Description: as §4, §5, §6, §7

[3] = system: Phaseolus vulgaris (Bush bean cv. Blue Lake 274) leaves; experiment: Detached bean leaf bioassay, phytotoxicity rating; assay type: in vivo
Description: as §1, §2, §3
Treatment method: One half of the adaxial surface of the leaf was treated with the compound solution (100:L) using a 3 cm Bacti Cell Spreader. A blank consisted of 0.01% w/v Triton X-100. A commercial fungicide control (200 ppm diluted with water) consisted of Scala. After the solutions dried, the trays containing the leaves were covered and held one day in a growth chamber (22 C). The adaxial surfaces of the leaves were then inoculated with 5–60:L droplets of Botrytis cinerea spore solution.
Phytotoxicity ratings: Phytotoxicity was rated as 0=no phytotoxicity, l=slight phytotoxicity, 2=moderate phytotoxicity, or 3=excessive phytotoxicity (Table 2).

## Cc1ccc(-c2cc(-c3ccc(C)cc3)[n+](-c3ccccc3)c(-c3cccc(C)c3)c2)cc1.[O-][Cl+3]([O-])([O-])O [formula I]
Botrytis cinerea [1]
  Botrytis cinerea control (200 ppm): 93%
Rhizoctonia solani; fungicide rate 2 ppm
  Control of fungi (full, partial, none): None
Rhizoctonia solani; fungicide rate 10 ppm
  Control of fungi (full, partial, none): Full
Rhizoctonia solani; fungicide rate 20 ppm
  Control of fungi (full, partial, none): Full
Sclerotinia sclerotiorum; fungicide rate 2 ppm
  Control of fungi (full, partial, none): Full
Sclerotinia sclerotiorum; fungicide rate 10 ppm
  Control of fungi (full, partial, none): Full
Sclerotinia sclerotiorum; fungicide rate 20 ppm
  Control of fungi (full, partial, none): Full
Pythium aphanidermatum; fungicide rate 2 ppm
  Control of fungi (full, partial, none): Full
Pythium aphanidermatum; fungicide rate 10 ppm
  Control of fungi (full, partial, none): Full
Pythium aphanidermatum; fungicide rate 20 ppm
  Control of fungi (full, partial, none): Full
Cercospora arachidicola; fungicide rate 2 ppm
  Control of fungi (full, partial, none): None
Cercospora arachidicola; fungicide rate 10 ppm
  Control of fungi (full, partial, none): Full
Cercospora arachidicola; fungicide rate 20 ppm
  Control of fungi (full, partial, none): Full
Mycosphaerella fijiensis; fungicide rate 2 ppm
  Control of fungi (full, partial, none): Full
Mycosphaerella fijiensis; fungicide rate 10 ppm
  Control of fungi (full, partial, none): Full
Mycosphaerella fijiensis; fungicide rate 20 ppm
  Control of fungi (full, partial, none): Full
Botrytis cinerea [2]; fungicide rate 2 ppm
  Control of fungi (full, partial, none): Partial
Botrytis cinerea [2]; fungicide rate 10 ppm
  Control of fungi (full, partial, none): Full
Botrytis cinerea [2]; fungicide rate 20 ppm
  Control of fungi (full, partial, none): Full
Monilinia laxa; fungicide rate 2 ppm
  Control of fungi (full, partial, none): Full
Monilinia laxa; fungicide rate 10 ppm
  Control of fungi (full, partial, none): Full
Monilinia laxa; fungicide rate 20 ppm
  Control of fungi (full, partial, none): Full
[3]
  Phytotoxity (200 ppm): Slight
